Data on 2 compounds can be found in patent US4041038A, “1-(3-Phenylpropyl)-4-(beta-alkoxyacryloyl)piperazine derivatives” (Kyorin Pharmaceutical Co., Ltd., priority 1975, dated 1977).

For orientation: LD50 means the dose expected to kill half of the subjects tested. The low end stands for greater toxicity, the high end for lower toxicity.

The nature of data set [1]: 50% anesthetic dose in mice (i.v.). To be noted: for selectivity ratio: in vivo, read-out: LD50/AD50; for selectivity ratio / ED50: iv, mouse, i.v.; for ED50: read-out: AD50 (50% anesthetic dose). Format: in vivo, mouse. From the text: (§1) The compounds included in this invention are useful as general anesthetics.
Data set [2] is described as follows: 50% anesthetic dose in rats (i.v.). Format: in vivo, rat. To be noted: for selectivity ratio: in vivo, read-out: LD50/AD50; for selectivity ratio / ED50: iv, rat, i.v.; for ED50: read-out: AD50 (50% anesthetic dose).
Source text: as §1

The subject of the next data set is extension of hind legs. The experiment in a line: reflex against extension of hind legs / muscular relaxation in rabbits. As to conditions: for muscular relaxant activity / muscular rigidity: same doses for KA-100 and thiopental-Na. Format: in vivo, rabbit. The procedure: (§2) Thiopental-Na caused an anesthesia lasted for 13 min. after injection of 20 mg/kg and 30 min. after 30 mg/kg.

Data set [3] can be described thus: 50% lethal dose in mice (i.v.). As to conditions: in vivo, iv, mouse.
Source text: as §1

Data set [4] in a line: 50% lethal dose in rats (i.v.). As to conditions: in vivo, iv, rat.
Source text: as §1

Data set [5] in a line: anesthesia, sleeping time and post-anesthetic recovery in rabbits (i.v.). Format: in vivo, rabbit. The procedure: In rabbits, KA-100 caused an anesthesia at the doses of more than 10 mg/kg (i.v.), and the sleeping times at 20 and 30 mg/kg were 20 min. and more than 20 min. respectively.
as §2

The subject of data set [6] is withdrawal reflex against nociceptive stimuli. The experiment in a line: withdrawal reflex against nociceptive stimuli (pinching of hind leg toes, small incision of abdomen) in rabbits. To be noted: for anti-nociceptive activity: same doses for KA-100 and thiopental-Na. Format: in vivo, rabbit. The procedure: as §2
Data set [7] in a line: disturbance of blood vessels. As to conditions: maleate.
The next data set can be described thus: solubility in water. Type of data set: physicochemical. As to conditions: maleate, nearly physiological pH (pH 6).

Regarding `CCCC(C)C1(CC)C(=O)NC(=S)NC1=O` (stereo not drawn) [Thiopental-Na, reference compound], the selectivity ratio was 4.3 in data set [1] and 7.5 in data set [2]. The ED50 in data set [1] stood at 20.9 mg/kg; in [2], 10.7 mg/kg. Also, the “muscular relaxant activity / muscular rigidity” value with extension of hind legs was “induced muscular rigidity”. Moreover, the LD50 in data set [3] was 90.9 mg/kg; in data set [4], 80.3 mg/kg. Also, the results for the “sleeping time / duration of anesthesia” value in data set [5] (20 mg/kg) and in data set [5] (30 mg/kg) were 13 min and 30 min, respectively. Moreover, the anti-nociceptive activity entry in [6] was “no anti-nociceptive effect”.
With `CCOC=CC(=O)N1C[C@H](C)N(CCCc2ccccc2)C[C@H]1C.O=C(O)/C=C\C(=O)O` (relative stereo) [KA-100, trans-1-(3-phenylpropyl)-2,5-dimethyl-4-(β-ethoxyacryloyl)piperazine maleate], the selectivity ratio in [1] was determined as 4.9; in data set [2], 12.6. Moreover, the ED50 in [1] came out at 7.6 mg/kg; in [2] it was 4.8 mg/kg. For the same compound, the anesthetic effect entry in data set [1] (mice), in data set [2] (rats) and in data set [5] was “good anesthetic effect” throughout. The “reflex against extension of hind legs” value in the data set on extension of hind legs (more than 20 mg/kg) was “lost the withdrawal reflex against nociceptive stimuli (pinching of hind leg toes by a forceps or small incision of abdomen) and against extension of hind legs”. The “muscular relaxant activity / muscular rigidity” value with extension of hind legs is reported as “muscular relaxant activity”. Besides, the LD50 in [3] was 37.3 mg/kg; in data set [4], 60.2 mg/kg. In [7], the “disturbance of blood vessels” value is listed as “does not disturb blood vessels”. Also, the solubility in water entry in “solubility in water” was “soluble in water”. In addition, the “sleeping time / duration of anesthesia” value in data set [5] (20 mg/kg) was 20 min; in data set [5] (30 mg/kg), “more than 20 min”. The pharmacological potency result in [5] (KA-100 and thiopental-Na compared) is given as “practically equal”. In data set [5] (Oryctolagus cuniculus, iv, read-out: doses that caused an anesthesia), the minimal effective dose is above 10 mg/kg. In addition, the “recovery from ataxic state in post-anesthetic period” value in data set [5] (compared with thiopental-Na) is given as “far more rapid”. In addition, in [6] (more than 20 mg/kg), the “withdrawal reflex against nociceptive stimuli” value is given as “lost the withdrawal reflex against nociceptive stimuli”. In data set [6], the anti-nociceptive activity entry is given as “anti-nociceptive”.
